Test results reported in patent publication US4024224A, “14-Aminodaunomycins, their preparation and use” (priority 1974, dated 1977).
≈ marks a conversion by molar mass, not a printed value. Where two headings read alike, the source gives them in different places.

How the values were obtained:
[1] = tested on: Mouse Embryo Fibroblasts; test: Proliferation of uninfected mouse embryo fibroblasts (MEF); type: cell-based; conditions: Mus musculus, Fibroblast, 72 h, read-out: MEF No. of cells
Description: (§1) Mouse embryo fibroblasts (MEF) were plated on 35 mm. Falcon plastic dishes and infected 24 hours later with Moloney Sarcoma Virus (MSV) in the presence of DEAE-dextran (25 μg./ml.). The samples were then treated for 3 days with different concentrations of the compounds of the invention. The number of foci of transformed cells was microscopically determined 5 days after the infection. Uninfected MEF were similarly treated and at the end of the experiment, the cells were counted in an haemocytometer. In all the experiments, the cells were incubated in a 5% CO2 incubator at 37° C.
(§2) For use in these tests the compounds were dissolved in distilled water or in 5% ethyl alcohol in distilled water and then diluted in culture medium.

[2] = as above; type: cell-based; conditions: mouse, mouse embryo fibroblasts; calculated on dose-effects lines; uninfected MEF, 3 days treatment; read-out: MEF proliferation ID 50 (Inhibiting Dose 50%)
Description: as §1, §2

[3] = tested on: Moloney Sarcoma Virus (MSV); test: Inhibition of MSV-M foci formation in mouse embryo fibroblasts; type: cell-based; conditions: Fibroblast, 120 h; for IC50: read-out: MSV-M foci ID 50 (Inhibiting Dose 50%)
Description: as §1, §2
The results of these tests are reported in Table I in terms of ID50 values (Inhibiting Dose 50%), calculated on dose-effects lines.

[4] = tested on: ascites Sarcoma 180; test: Antitumor activity and toxicity on ascites Sarcoma 180 in CD 1 mice; type: in vivo; conditions: for % LTS: 60 days; for LTS (Long Term Survivors after 60 days): survivors/total; for Toxic Deaths: deaths/total
Description: (§3) The antitumor activity of the compounds of the invention was tested on ascites Sarcoma 180.
(§4) Three month old CD 1 mice were used. Sarcoma 180 ascites cells were inoculated intraperitoneally (10^6 cells/mouse). For use in these tests, the compounds were dissolved in distilled water or in 5% ethyl alcohol in distilled water, then diluted with Ringers solution and administered i.p. 1 day after the tumor implant (10 ml./kg. of body weight).
(§5) The toxicity of the test compounds was evaluated by macroscopic autoptic examination mainly in terms of reduction in spleen size. The comparison of the effectiveness of the test compounds is based on the maximum increase in median survival time, as compared to untreated controls, over the dose range used. The number of Long Term Survivors (LTS) refers to tumor-free mice at the end of the experiment (60 days). Solid Sarcoma 180 was implanted subcutaneously by trocar in the flank of CD 1 mice according to standard methods. The mice were treated i.v. for 5 consecutive days, starting 1 day after the tumor implant. On the 11th day the tumor volume was measured by means of a caliper and evaluated according to the formula (a^2 × b)/2, a and b being the minimum and the maximum diameters respectively.

[5] = as above; type: in vivo; conditions: mouse, in vivo, ip, read-out: % Toxic Deaths
Description: as §3, §4, §5

[6] = 0.2 mg./kg. i.p. 1 day after tumor implant
[7] = 1 mg./kg. i.p. 1 day after tumor implant
[8] = 5 mg./kg. i.p. 1 day after tumor implant
[9] = 12.5 mg./kg. i.p. 1 day after tumor implant
[10] = 25 mg./kg. i.p. 1 day after tumor implant
[11] = 50 mg./kg. i.p. 1 day after tumor implant
[12] = 10 mg./kg. i.p. 1 day after tumor implant

`COc1cccc2c1C(=O)c1c(O)c3c(c(O)c1C2=O)C[C@@](O)(C(=O)CN1CCN(CCO)CC1)C[C@@H]3O[C@H]1C[C@H](N)[C@H](O)[C@H](C)O1` [14-[N-(N'-hydroxyethyl)piperazino]-daunomycin] showed an activity at 0.0062 µg/mL ([1]; dose 0.0062 μg/ml, uninfected MEF, 3 days treatment) of 67%, an activity at 0.025 µg/mL ([1]; dose 0.0250 μg/ml, uninfected MEF, 3 days treatment) of 64% and an activity at 0.1 µg/mL ([1]; dose 0.1 μg/ml, uninfected MEF, 3 days treatment) of 52%. It also gave an activity at 0.4 µg/mL ([1]; dose 0.4 μg/ml, uninfected MEF, 3 days treatment) of 31%, an IC50 at 72 h [2] of 0.08 µg/mL (≈ 0.122 µM) and an IC50 ([3]; calculated on dose-effects lines, 3 days treatment) of 0.045 µg/mL (≈ 0.0686 µM). It also gave an activity at 0.0062 µg/mL ([3]; dose 0.0062 μg/ml, 3 days treatment, foci counted 5 days after infection, read-out: MSV-M No. of foci) of 71%, an activity at 0.025 µg/mL ([3]; dose 0.0250 μg/ml, 3 days treatment, foci counted 5 days after infection, read-out: MSV-M No. of foci) of 64% and an activity at 0.1 µg/mL ([3]; dose 0.1 μg/ml, 3 days treatment, foci counted 5 days after infection, read-out: MSV-M No. of foci) of 43%. The activity at 0.4 µg/mL ([3]; dose 0.4 μg/ml, 3 days treatment, foci counted 5 days after infection, read-out: MSV-M No. of foci) was 2%, the “T/C (median survival time, % over untreated controls)” value [4, 6] was 103% and the “% LTS” value [4, 6] was 0%. The “LTS (Long Term Survivors after 60 days)” value [4, 6] was 0/10, the “Toxic Deaths” value ([4]; 0.2 mg./kg. i.p.) was 0/10 and the “T/C (median survival time, % over untreated controls)” value [4, 7] was 103%. For the same molecule, the “% LTS” value [4, 7] was 0%, the “LTS (Long Term Survivors after 60 days)” value [4, 7] was 0/10 and the “Toxic Deaths” value ([4]; 1 mg./kg. i.p.) was 0/10. For the same molecule, the “T/C (median survival time, % over untreated controls)” value [4, 8] was 103%, the “% LTS” value [4, 8] was 10% and the “LTS (Long Term Survivors after 60 days)” value [4, 8] was 1/10. For the same molecule, the “Toxic Deaths” value ([4]; 5 mg./kg. i.p.) was 0/10, the “T/C (median survival time, % over untreated controls)” value [4, 9] was 152% and the “% LTS” value [4, 9] was 0%. The “LTS (Long Term Survivors after 60 days)” value [4, 9] was 0/10, the “Toxic Deaths” value ([4]; 12.5 mg./kg. i.p.) was 0/10 and the “T/C (median survival time, % over untreated controls)” value [4, 10] was 222%. For the same molecule, the “% LTS” value [4, 10] was 10%, the “LTS (Long Term Survivors after 60 days)” value [4, 10] was 1/10 and the “Toxic Deaths” value ([4]; 25 mg./kg. i.p.) was 0/10. For the same molecule, the “T/C (median survival time, % over untreated controls)” value [4, 11] was 152%, the “% LTS” value [4, 11] was 0% and the “LTS (Long Term Survivors after 60 days)” value [4, 11] was 0/10. For the same molecule, the “Toxic Deaths” value ([4]; 50 mg./kg. i.p.) was 3/10, the mortality ([5]; 0.2 mg./kg. i.p.) was 0% and the mortality ([5]; 1 mg./kg. i.p.) was 0%. It also gave a mortality ([5]; 5 mg./kg. i.p.) of 0%, a mortality ([5]; 12.5 mg./kg. i.p.) of 0% and a mortality ([5]; 25 mg./kg. i.p.) of 0%. For the same molecule, the mortality ([5]; 50 mg./kg. i.p.) was 30%.
`COc1cccc2c1C(=O)c1c(O)c3c(c(O)c1C2=O)C[C@@](O)(C(=O)CO)C[C@@H]3O[C@H]1C[C@H](N)[C@H](O)[C@H](C)O1` [Adriamycin, reference compound] gave an activity at 0.0062 µg/mL [1] of 61%, an activity at 0.0125 µg/mL [1] of 42% and an activity at 0.025 µg/mL [1] of 37%. For the same molecule, the IC50 at 72 h [2] was 0.01 µg/mL (≈ 0.0184 µM), the activity at 0.0062 µg/mL ([3]; read-out: MSV-M No. of foci) was 46% and the activity at 0.0125 µg/mL ([3]; read-out: MSV-M No. of foci) was 24%. For the same molecule, the activity at 0.025 µg/mL ([3]; read-out: MSV-M No. of foci) was 0%, the IC50 [3] was 0.005 µg/mL (≈ 0.0092 µM) and the “% LTS” value [4, 6] was 16%. The “LTS (Long Term Survivors after 60 days)” value [4, 6] was 5/30, the “Toxic Deaths” value ([4]; 0.2 mg./kg. i.p.) was 0/30 and the “T/C (median survival time, % over untreated controls)” value [4, 7] was 177%. For the same molecule, the “% LTS” value [4, 7] was 45%, the “LTS (Long Term Survivors after 60 days)” value [4, 7] was 13/29 and the “Toxic Deaths” value ([4]; 1 mg./kg. i.p.) was 0/29. For the same molecule, the “T/C (median survival time, % over untreated controls)” value [4, 8] was 200%, the “% LTS” value [4, 8] was 19% and the “LTS (Long Term Survivors after 60 days)” value [4, 8] was 9/47. The “Toxic Deaths” value ([4]; 5 mg./kg. i.p.) was 5/47, the “% LTS” value [4, 12] was 0% and the “LTS (Long Term Survivors after 60 days)” value [4, 12] was 0/10. For the same molecule, the “Toxic Deaths” value ([4]; 10 mg./kg. i.p.) was 2/10, the mortality ([5]; 0.2 mg./kg. i.p.) was 0% and the mortality ([5]; 1 mg./kg. i.p.) was 0%. It also gave a mortality ([5]; 5 mg./kg. i.p.) of 10% and a mortality ([5]; 10 mg./kg. i.p.) of 20%.
